Values quoted from earlier work, collected in patent publication US20050175959A1, “System for the controlled delivery of an active material to a dental site” (Coll Partners Ltd., priority 2000, published 2005).

Details: in vivo

F [fluoride]
acute lethal dose of fluoride (F): 33 mg F/Kg body weight | chronic toxicity: 0.1 mg F/Kg
